The assay addresses T1, 15-lipoxygenase-1 (15-LO) (Homo sapiens, UniProt P16050).
T1 construct: gene ALOX15; 6xHis-tagged human 15-LO
T1 sequence (P16050 2-662): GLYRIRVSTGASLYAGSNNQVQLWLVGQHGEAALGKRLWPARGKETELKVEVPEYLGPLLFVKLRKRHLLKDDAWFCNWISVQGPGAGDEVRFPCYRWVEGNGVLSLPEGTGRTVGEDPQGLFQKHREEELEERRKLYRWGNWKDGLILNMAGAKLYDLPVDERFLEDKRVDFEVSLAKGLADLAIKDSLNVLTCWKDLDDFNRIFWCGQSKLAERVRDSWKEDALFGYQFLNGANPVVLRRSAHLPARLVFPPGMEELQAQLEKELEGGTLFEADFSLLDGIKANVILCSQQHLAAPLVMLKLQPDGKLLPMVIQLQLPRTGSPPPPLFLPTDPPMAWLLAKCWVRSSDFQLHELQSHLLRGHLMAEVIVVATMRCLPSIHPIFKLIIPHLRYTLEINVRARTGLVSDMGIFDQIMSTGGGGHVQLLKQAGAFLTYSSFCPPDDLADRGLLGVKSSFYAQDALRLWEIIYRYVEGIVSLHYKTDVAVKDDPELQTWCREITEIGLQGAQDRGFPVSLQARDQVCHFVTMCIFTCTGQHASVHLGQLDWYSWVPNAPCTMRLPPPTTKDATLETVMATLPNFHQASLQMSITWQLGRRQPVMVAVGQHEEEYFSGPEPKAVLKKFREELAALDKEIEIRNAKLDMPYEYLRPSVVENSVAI
Briefly: ferrous oxidation-xylenol orange (FOX) assay with purified human 15-LO and arachidonic acid. In kind it is biochemical.

Structures are written as SMILES.

By IC50 is commonly meant the concentration that gives 50% inhibition. Low values mean greater potency, high ones weaker potency.

As for `CC(C)=CCC/C(C)=C/CC/C(C)=C/CC[C@@](C)(O)CCc1c(C)c(O)c(C)c(C)c1O` [EPI-743-HQ, EPI-743 hydroquinone], it took 4.4 µM to reach half-maximal inhibition (IC50).

Values taken from article PMC6438538, “Targeting ferroptosis: A novel therapeutic strategy for the treatment of mitochondrial disease-related epilepsy” (PLoS ONE, 2019).
